Series [1] addresses T1, MC4 receptor (MC4R) (Homo sapiens, UniProt P32245).
T1 construct: expressed in transfected cells; host or cells: CHO-CRE MC4R cells (membranes)
Nature of the series: AGRP inhibition: competition binding vs [125I]AGRP(87-132) at CHO-CRE MC4R cell membranes. As to conditions: vs 0.3 nM [125I]AGRP(87-132). The text has this:
Agouti related protein (AGRP) is a high affinity endogenous antagonist/inverse agonist for the MC4 receptor (Lu et al., 1994, Nature 371: 799-802; Oilman et al., 1997, Science 278: 135-138). […] It has been ascertained that this C-terminal fragment of AGRP contains the MC4R binding determinants (Yang et al., 1999, Mol Endocrinol 13: 148-155), therefore, compounds can be evaluated for their ability to inhibit AGRP binding to membranes from cells expressing the MC4R using a competition binding assay versus [^125I]AGRP(87-132). To this end cells expressing the MC4R were subject to homogenisation and the membrane fragment isolated by differential centrifugation. CHO-CRE MC4R cell membranes (12 μg protein) were incubated with 0.3 nM [^125I]AGRP(87-132) and 11 half-log concentrations of competitor ligand, in duplicate, in a total volume of 100 μl buffer (25 mM HEPES, 1 mM MgCl2, 2.5 mM CaCl2, 0.5% BSA pH 7.0). Non-specific binding was determined by the inclusion of 1 μM SHU9119. The reaction was initiated by the addition of membranes and plates were incubated at room temperature for 2 hours. The reaction was terminated by rapid filtration onto GF/C filters (presoaked in 1% PEI) using a vacuum harvester followed by five 200 μl washes of ice cold wash buffer (Binding buffer containing 500 mM NaCl). The filters were soaked in 50 μl scintillation fluid and the amount of radioactivity present was determined by liquid scintillation counting. Ki values were determined by data analysis using appropriate software.

Series [2] is described as follows: In vitro metabolism rate determination, rat liver microsome (RLM) assay. In kind it is in vitro ADME. As to conditions: rat liver microsomes, substrate 1 μM; read-out: RLM (intrinsic clearance).
For series [3], the target named is MC4 receptor (Homo sapiens, UniProt P32245). The experiment in a line: MC4 functional agonist potency (EC50), assay protocol E of US2005/0176772 / WO 2005/077935. As to conditions: functional potency at the MC4 receptor. In kind it is cell-based. As to the method:
The compounds of formula (I) of the present invention have utility as MCR4 agonists in the treatment of various disease states.
MC5 and MC4 EC50 activity was determined as described by assay protocols D and E, respectively, in US2005/0176772 (pages 28-30).

Series [4] in a line: In vitro metabolism rate determination, human liver microsome (HLM) assay. In kind it is in vitro ADME. As to conditions: human liver microsomes, substrate 1 μM; read-out: HLM (intrinsic clearance).

In patent US8138188B2, “Melanocortin type 4 receptor agonist piperidinoylpyrrolidines” (Pfizer Inc., priority 2006, dated 2012) one finds Ki, microsomal CLint and EC50 data, which are given here for 18 compounds.

Structures are written as SMILES. Some results are limits rather than exact numbers.

MC4 receptor, sequence (P32245 whole entry): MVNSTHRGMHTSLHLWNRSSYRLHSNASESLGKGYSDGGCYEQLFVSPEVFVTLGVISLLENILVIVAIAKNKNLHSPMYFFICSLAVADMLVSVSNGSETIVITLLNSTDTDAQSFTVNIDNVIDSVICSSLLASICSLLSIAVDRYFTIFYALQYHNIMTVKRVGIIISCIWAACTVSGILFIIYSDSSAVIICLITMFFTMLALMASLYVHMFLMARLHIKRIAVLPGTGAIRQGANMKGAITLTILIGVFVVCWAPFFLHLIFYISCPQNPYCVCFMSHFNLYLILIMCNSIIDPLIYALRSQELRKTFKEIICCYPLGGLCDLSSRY
T1 sequence (P32245 whole entry): as above

In series [1], `C[C@@H]1CN(C(=O)[C@@H]2CN(c3ccc(=O)n(C)n3)C[C@H]2c2ccc(Cl)cn2)C[C@H](C)[C@@]1(O)c1ccccn1` [Example 22] came in with an inhibitory constant (Ki) of 5.96 µM. Further, the microsomal CLint at 1 μM in series [2] was determined as 96 µL/min/mg; in series [4], 179 µL/min/mg. Moreover, the midpoint of the response in series [3], the EC50, lay at 0.0198 µM.

Compound `COc1ccc(C2(O)C(C)CN(C(=O)C3CN(c4ccc(=O)n(C)n4)CC3c3ccc(Cl)cn3)CC2C)cc1` (stereo not drawn) [Example 20] registered a Ki in series [1] of 0.253 µM. Also, the microsomal CLint at 1 μM in series [2] came to 51.5 µL/min/mg; in series [4], 31 µL/min/mg. In series [3], this compound yielded a concentration for a half-maximal effect (EC50) of 0.0164 µM.

With `C[C@@H]1CN(C(=O)[C@@H]2CN(c3ccc(=O)n(C)n3)C[C@H]2c2ccc(Cl)cn2)C[C@H](C)[C@@]1(O)C1CC1` [Example 18], in series [1], affinity was put at a Ki of 0.965 µM. Further, the microsomal CLint at 1 μM in series [2] was 68 µL/min/mg; in series [4], 67 µL/min/mg. This compound also gave an EC50 in series [3] of 0.0555 µM.

For `C[C@@H]1CN(C(=O)[C@@H]2CN(c3ccc(C#N)cn3)C[C@H]2c2ccc(Cl)cn2)C[C@H](C)[C@@]1(O)c1ccc(F)cc1` [Example 1, 6-[(3S,4S)-3-(5-Chloropyridin-2-yl)-4-{[(3R,4R,5S)-4-(4-fluorophenyl)-4-hydroxy-3,5-dimethylpiperidin-1-yl]carbonyl}pyrrolidin-1-yl]nicotinonitrile], the affinity in series [1] corresponds to a Ki of 0.039 µM. The microsomal CLint at 1 μM is less than 8.5 µL/min/mg in series [2] and less than 7 µL/min/mg in series [4]. The compound also displayed an EC50 in series [3] of less than 0.00052 µM.

`CC1CN(C(=O)C2CN(c3ccc(C#N)cn3)CC2c2ccc(C#N)cn2)CC(C)C1(O)c1ccc(F)cc1` (stereo not drawn) [Example 45] returned a Ki in series [1] of 0.251 µM. The microsomal CLint at 1 μM was less than 8.5 µL/min/mg in series [2] and less than 7 µL/min/mg in series [4]. The 50% effective concentration (EC50) in series [3] amounted to 0.0444 µM.

Regarding `C[C@@H]1CN(C(=O)[C@@H]2CN(c3ccc(C#N)nn3)C[C@H]2c2ccc(C#N)cn2)C[C@H](C)[C@@]1(O)c1ccc(F)cc1` [Example 46], in series [1], the inhibition constant (Ki) was found to be 0.134 µM. The microsomal CLint at 1 μM is less than 8.5 µL/min/mg in series [2] and less than 7 µL/min/mg in series [4]. For the same compound, the EC50 in series [3] came to 0.015 µM.

With `CC1CN(C(=O)C2CN(c3ccc(=O)n(C)n3)CC2c2ccc(Cl)cn2)CC(C)C1(O)c1ccccc1` (stereo not drawn) [Example 21], the inhibition constant Ki in series [1] was 0.066 µM. In addition, the microsomal CLint at 1 μM is 58.5 µL/min/mg in series [2] and 144 µL/min/mg in series [4]. For the same compound, in series [3], the EC50 worked out at 0.00281 µM.

In turn, `COc1ccc(C2CN(c3ccc(C#N)nn3)CC2C(=O)N2CC(C)C(O)(c3ccc(F)cc3)C(C)C2)cn1` (stereo not drawn) [Example 16] had a Ki in series [1] of 0.251 µM. Besides, the results for the microsomal CLint at 1 μM in series [2] and in series [4] were less than 8.5 µL/min/mg and less than 45.5 µL/min/mg, respectively. For the same compound, in series [3], the response was half-maximal at 0.0343 µM (EC50).

In series [1], `CC1CN(C(=O)C2CN(c3ccc(=O)n(C)n3)CC2c2ccc(F)cn2)CC(C)C1(O)c1ccc(F)cc1` (stereo not drawn) [Example 40] displayed a Ki of 0.43 µM. In addition, the microsomal CLint at 1 μM is less than 8.5 µL/min/mg in series [2] and less than 7 µL/min/mg in series [4]. The compound also returned an EC50 in series [3] of 0.0698 µM.

In series [1], `CC1CN(C(=O)C2CN(c3ccc(C#N)nn3)CC2c2ccc(Cl)cn2)CC(C)C1(O)c1ccccn1` (stereo not drawn) [Example 30] yielded an inhibitory constant (Ki) of 0.112 µM. Besides, the microsomal CLint at 1 μM was determined as 69.5 µL/min/mg in series [2] and 141 µL/min/mg in series [4]. Moreover, the concentration for a half-maximal effect (EC50) in series [3] amounted to 0.00577 µM.

In series [1], `COc1ccc([C@@H]2CN(c3ccc(=O)[nH]n3)C[C@H]2C(=O)N2C[C@@H](C)[C@](O)(c3ccc(Cl)cn3)[C@@H](C)C2)nc1` [Example 41] came in with a Ki of 3.75 µM. The microsomal CLint at 1 μM in series [2] turned out to be 30 µL/min/mg; in series [4], 21 µL/min/mg. For the same compound, the EC50 in series [3] stood at 0.655 µM.

With `C[C@@H]1CN(C(=O)[C@@H]2CN(c3ccc(C#N)nn3)C[C@H]2c2ccc(Cl)cn2)C[C@H](C)[C@@]1(O)c1ccc(F)cc1` [Example 2, 6-[(3S,4S)-3-(5-Chloropyridin-2-yl)-4-{[(3R,4R,5S)-4-(4-fluorophenyl)-4-hydroxy-3,5-dimethylpiperidin-1-yl]carbonyl}pyrrolidin-1-yl]pyridazine-3-carbonitrile], in series [1], the affinity corresponds to a Ki of 0.059 µM. Besides, the figures for the microsomal CLint at 1 μM in series [2] and in series [4] were 31 µL/min/mg and less than 12 µL/min/mg, respectively. The midpoint of the response in series [3], the EC50, lay at 0.00453 µM.

In series [1], `C[C@@H]1CN(C(=O)[C@@H]2CN(c3ccc(Cl)nn3)C[C@H]2c2ccc(Cl)cn2)C[C@H](C)[C@@]1(O)c1ccccn1` [Example 31] registered an inhibitory constant (Ki) of 0.526 µM. Besides, the microsomal CLint at 1 μM in series [2] stood at 292 µL/min/mg; in series [4], 188 µL/min/mg. This compound also showed a half-maximal effective concentration (EC50) in series [3] of 0.0229 µM.

Take `C[C@@H]1CN(C(=O)[C@@H]2CN(c3ccc(=O)n(C)n3)C[C@H]2c2ccc(F)cn2)C[C@H](C)[C@@]1(O)c1ccc(Cl)cc1` [Example 7, 6-[(3S,4S)-3-{[(3R,4R,5S)-4-(4-chlorophenyl)-4-hydroxy-3,5-dimethylpiperidin-1-yl]carbonyl}-4-(5-fluoropyridin-2-yl)pyrrolidin-1-yl]-2-methylpyridazin-3(2H)-one]: the Ki in series [1] is 0.714 µM. Moreover, the microsomal CLint at 1 μM in series [2] stood at 11 µL/min/mg; in series [4] it was 21 µL/min/mg. This compound also registered an EC50 in series [3] of 0.04 µM.

As to `C[C@@H]1CN(C(=O)[C@@H]2CN(c3ccc(=O)[nH]n3)C[C@H]2c2ccc(Cl)cn2)C[C@H](C)[C@@]1(O)c1ccccn1` [Example 28], the affinity in series [1], expressed as Ki, was 0.516 µM. For the same compound, the values for the microsomal CLint at 1 μM in series [2] and in series [4] were 51 µL/min/mg and 33 µL/min/mg, respectively. The same compound came in with an EC50 in series [3] of 0.0244 µM.

Take `CC1CN(C(=O)C2CN(c3ccc(C#N)nn3)CC2c2ccc(F)cn2)CC(C)C1(O)c1ccccc1` (stereo not drawn) [Example 33]: in series [1], the Ki stood at 0.22 µM. Further, the microsomal CLint at 1 μM came out at 72 µL/min/mg in series [2] and 186 µL/min/mg in series [4]. This compound also displayed a half-maximal effective concentration (EC50) in series [3] of 0.0134 µM.

On to `CC1CN(C(=O)C2CN(c3ccc(=O)n(C)n3)CC2c2ccc(Cl)cn2)CC(C)C1(O)c1ccc(Cl)cc1` (stereo not drawn) [Example 23], for which the Ki in series [1] was found to be 0.079 µM. Also, the results for the microsomal CLint at 1 μM in series [2] and in series [4] were less than 8.5 µL/min/mg and less than 15.5 µL/min/mg, respectively. In addition, it took 0.00475 µM to reach a half-maximal effect in series [3] (EC50).

Turning to `C[C@@H]1CN(C(=O)[C@@H]2CN(c3ccc(=O)n(C)n3)C[C@H]2c2ccc(Cl)cn2)C[C@H](C)[C@@]1(O)c1ccc(Cl)cn1` [Example 10], the Ki in series [1] was 0.223 µM. Besides, the microsomal CLint at 1 μM in series [2] amounted to 42 µL/min/mg; in series [4], 20.5 µL/min/mg. In addition, it took 0.0119 µM to reach a half-maximal effect in series [3] (EC50).
